Key:
[1] = Transport (permeability) of ginsenosides in CaCo-2 cell monolayers; assay type: in vitro ADME; conditions: human, Caco-2, CaCo-2 cell monolayers, 50 µM; B to A Papp divided by A to B Papp; read-out: Efflux ratio (ER)
P-gp = target: T1, P-gp (Homo sapiens, UniProt P08183); assay: Transport of ginsenosides in P-gp-overexpressing LLC-PK1-P-gp cells; assay type: in vitro ADME
T1 construct: host or cells: LLC-PK1-P-gp cells (passage no. 25–28)

LAB = assay: In vitro RGE fermentation with LAB; assay type: in vitro ADME; conditions: RGE incubated with LAB (1 billion CFU) for 7 days at 37 °C; result in words
[2] = cited from earlier work

T1 sequence (P08183 whole entry): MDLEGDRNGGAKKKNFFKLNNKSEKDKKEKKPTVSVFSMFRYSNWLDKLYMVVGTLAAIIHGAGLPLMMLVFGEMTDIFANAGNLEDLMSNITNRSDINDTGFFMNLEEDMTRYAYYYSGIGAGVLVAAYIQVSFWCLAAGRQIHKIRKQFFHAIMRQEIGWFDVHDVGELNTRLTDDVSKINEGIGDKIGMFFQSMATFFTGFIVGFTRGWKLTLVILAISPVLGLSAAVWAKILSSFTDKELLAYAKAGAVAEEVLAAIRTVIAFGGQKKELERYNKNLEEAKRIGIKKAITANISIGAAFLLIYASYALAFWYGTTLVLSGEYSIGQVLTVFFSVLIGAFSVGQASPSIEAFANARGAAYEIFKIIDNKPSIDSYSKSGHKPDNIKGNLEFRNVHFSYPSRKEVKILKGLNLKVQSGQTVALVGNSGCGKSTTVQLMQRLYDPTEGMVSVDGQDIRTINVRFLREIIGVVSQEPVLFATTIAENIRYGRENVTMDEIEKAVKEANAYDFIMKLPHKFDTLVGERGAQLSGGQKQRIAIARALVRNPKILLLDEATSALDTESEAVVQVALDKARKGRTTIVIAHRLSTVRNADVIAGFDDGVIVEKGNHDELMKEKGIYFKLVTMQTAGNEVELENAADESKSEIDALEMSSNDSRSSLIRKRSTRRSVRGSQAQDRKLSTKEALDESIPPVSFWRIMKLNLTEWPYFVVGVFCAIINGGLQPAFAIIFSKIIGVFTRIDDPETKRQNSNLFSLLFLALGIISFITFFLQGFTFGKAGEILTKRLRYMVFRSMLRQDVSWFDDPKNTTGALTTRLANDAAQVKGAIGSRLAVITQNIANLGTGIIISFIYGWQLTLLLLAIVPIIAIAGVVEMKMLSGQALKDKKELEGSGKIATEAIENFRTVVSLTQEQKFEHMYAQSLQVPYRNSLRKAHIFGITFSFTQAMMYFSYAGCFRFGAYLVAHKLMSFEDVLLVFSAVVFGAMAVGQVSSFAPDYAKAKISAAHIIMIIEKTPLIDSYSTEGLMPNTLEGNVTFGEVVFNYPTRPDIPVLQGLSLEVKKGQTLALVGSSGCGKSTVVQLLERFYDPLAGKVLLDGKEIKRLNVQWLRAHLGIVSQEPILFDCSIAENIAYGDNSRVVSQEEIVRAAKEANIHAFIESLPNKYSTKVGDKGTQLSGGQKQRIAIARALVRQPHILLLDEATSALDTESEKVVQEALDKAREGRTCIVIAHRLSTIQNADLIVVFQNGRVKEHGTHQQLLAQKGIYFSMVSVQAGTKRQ

CC(C)=CCC[C@](C)(O)[C@H]1CC[C@]2(C)[C@@H]1[C@H](O)C[C@@H]1[C@@]3(C)CC[C@H](O[C@@H]4O[C@H](CO)[C@@H](O)[C@H](O)[C@H]4O)C(C)(C)[C@@H]3CC[C@]12C [GRh2, ginsenoside Rh2]
efflux ratio at 50 µM [1]: 2.3 | CLint (intrinsic clearance) (P-gp; P-gp-mediated B to A transport in LLC-PK1-P-gp cells): 502 µL/min | efflux ratio at 20 μM (P-gp; pig, LLC-PK1, LLC-PK1-P-gp cells, 20 μM, B to A Papp divided by A to B Papp, read-out: ER): 18 | Papp A→B at 20 μM (P-gp; pig, LLC-PK1-P-gp cells, 20 μM, mean ± SD, n = 3, read-out: A to B permeability): 0.08 ± 0.01 ×10⁻⁶ cm/s | Papp B→A at 20 μM (P-gp; pig, LLC-PK1-P-gp cells, 20 μM, mean ± SD, n = 3, read-out: B to A permeability): 1.39 ± 0.13 ×10⁻⁶ cm/s | Relative abundance / metabolic activity following fermentation of RGE with LAB (LAB): significantly increased | Oral BA [2]: 5%
